For 29 molecules, IC50 results are on record in patent publication US8377974B2 (Millennium Pharmaceuticals, Inc., priority 2004, dated 2013).

Each structure is given as a SMILES string. Bounds are passed on as bounds.

In this experiment the target is T1, human plasma protein factor Xa (Homo sapiens, UniProt P00742).
T1 construct: measure proteolytic activity of the enzyme (factor Xa); purchased Haematologic Technologies (Essex Junction, Vt.); host or cells: human plasma
T1 sequence (P00742 235-488 limits assumed): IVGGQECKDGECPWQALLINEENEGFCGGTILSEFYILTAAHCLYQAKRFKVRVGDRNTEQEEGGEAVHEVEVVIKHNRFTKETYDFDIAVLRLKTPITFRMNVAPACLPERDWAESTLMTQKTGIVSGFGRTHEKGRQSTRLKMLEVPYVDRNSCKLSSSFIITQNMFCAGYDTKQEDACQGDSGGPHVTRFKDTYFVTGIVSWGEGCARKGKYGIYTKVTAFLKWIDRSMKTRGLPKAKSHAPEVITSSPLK
T1 sequence (P00742 41-179 partner limits assumed): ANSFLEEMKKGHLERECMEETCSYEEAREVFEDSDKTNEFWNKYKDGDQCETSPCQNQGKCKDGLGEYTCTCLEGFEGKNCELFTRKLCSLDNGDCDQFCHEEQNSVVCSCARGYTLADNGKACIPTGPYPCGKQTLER
The experiment can be described thus: Factor Xa IC50 determination: cleavage of paranitroanilide substrate S-2765 in 96-well plates. The settings on record: fXa 1 nM, S-2765 100 μM, Tris buffered saline pH 7.4, room temperature. Format: biochemical. From the text: This example illustrates methods for evaluating the compounds of the invention, along with results obtained for such assays. The in vitro and in vivo Factor Xa isoform activities of the inventive compounds can be determined by various procedures known in the art, such as a test for their ability to inhibit the activity of the Factor Xa isoform. […] The IC50 value is the concentration (in nM) of the compound required to provide 50% inhibition of Factor Xa isoform.
An in vitro assay for detecting and measuring inhibition activity against Factor Xa is as follows:
The substrate S-2765 (Z-D-Arg-Gly-Arg-pNA.HCl) was obtained from Diapharma (West Chester, Ohio).
The human plasma protein factor Xa was purchased from Haematologic Technologies (Essex Junction, Vt.).
All assays, which are performed in 96-well microtiter plates, measure proteolytic activity of the enzyme (factor Xa) by following cleavage of paranitroanilide substrate. The assay buffer used for proteolytic assays was Tris buffered saline (20 mM Tris, 150 mM NaCl, 5 mM CaCl2, 0.1% Bovine serum albumin (BSA), 5% Dimethly Sulfoxide (DMSO) pH 7.4). In a 96-well microtiter plate, inhibitor was serially diluted to give a range of concentrations from 0.01 nM to 10 μM (final). Duplicate sets of wells were assayed and control wells without inhibitor were included. Enzyme was added to each well, (fXa concentration=1 nM), the plate was shaken for 5 seconds and then incubated for 5 minutes at room temperature. S2765 was added (100 μM final) and the plate was shaken for 5 seconds (final liquid volume in each well was 200 μl). The degree of substrate hydrolysis was measured at 405 nm on a Thermomax plate reader (Molecular Devices, Sunnyvale, Calif.) for 2 minutes. The initial velocities (mOD/min), for each range of inhibitor concentrations, were fitted to a four parameter equation using Softmax data analysis software. The parameter C, derived from the resulting curve-fit, corresponded to the concentration for half maximal inhibition (IC50).
One may read the IC50 as the point on the concentration scale where inhibition reaches its midpoint. Low readings indicate greater potency, high ones weaker potency. With `CN(C)Cc1ccc(-c2ccc(-c3cc(CNC(=O)c4ccc(Cl)s4)on3)cc2)cc1` [Example 213, 5-Chloro-thiophene-2-carboxylic acid [3-(4′-dimethylaminomethyl-biphenyl-4-yl)-isoxazol-5-ylmethyl]-amide], the IC50 is at least 500 nM.
Then `N=C(c1ccc(-c2cccc(CNC(=O)c3ccc(Cl)s3)c2)cc1)N1CCCC1` [Example 382, 5-Chloro-N-((3-(4-(imino(pyrrolidin-1-yl)methyl)phenyl)phenyl)methyl)thiophene-2-carboxamide], with at most 100 nM.
The molecule `COCCN(C)Cc1ccc(Cl)cc1-c1ccc(C2=NOC(CNC(=O)c3ccc(Cl)s3)C2)cc1` (centres unmarked) [Example 206, 5-Chloro-thiophene-2-carboxylic acid [3-(5′-chloro-2′-{[(2-methoxy-ethyl)-methyl-amino]-methyl}-biphenyl-4-yl)-4,5-dihydro-isoxazol-5-ylmethyl]-amide] registered an IC50 of 100 to 500 nM.
With `CN(C)Cc1ccc(-c2cccc(C3=NOC(CNC(=O)c4ccc(Cl)s4)C3)c2)cc1` (centres unmarked) [Example 266, 5-Chloro-thiophene-2-carboxylic acid [3-(4′-dimethylaminomethyl-biphenyl-3-yl)-4,5-dihydro-isoxazol-5-ylmethyl]-amide] the figure was at least 500 nM; with `N=C(c1ccc(-n2cc(CNC(=O)c3ccc(Cl)s3)nn2)c(F)c1)N1CCCC1` [Example 322, 5-Chloro-N-((1-(2-fluoro-4-(imino(pyrrolidin-1-yl)methyl)phenyl)-1H-1,2,3-triazol-4-yl)methyl)thiophene-2-carboxamide], at most 100 nM; with `CCOc1cc(C(=N)N2CCCC2)ccc1C1=NOC(CNC(=O)c2ccc(Cl)s2)C1` (centres unmarked) [Example 108, 5-Chloro-thiophene-2-carboxylic acid {3-[2-ethoxy-4-(imino-pyrrolidin-1-yl-methyl)-phenyl]-4,5-dihydro-isoxazol-5-ylmethyl}-amide], at most 100 nM.
Then `COc1cc(C(=N)N2CCCCC2)ccc1-c1cc(CNC(=O)c2ccc(Cl)s2)on1` [Example 121, 5-Chloro-thiophene-2-carboxylic acid {3-[4-(imino-piperidin-1-yl-methyl)-2-methoxy-phenyl]-isoxazol-5-ylmethyl}-amide], with at most 100 nM.
`CC1(CNC(=O)c2ccc(Cl)s2)CC(c2ccc(C(=N)N3CCCC3)cc2)=NO1` (centres unmarked) [Example 59, 5-Chloro-thiophene-2-carboxylic acid {3-[4-(imino-pyrrolidin-1-yl-methyl)-phenyl]-5-methyl-4,5-dihydro-isoxazol-5-ylmethyl}-amide]: the IC50 is at most 100 nM.
With `O=C(NCC1CC(c2ccc(-c3ccccc3Cl)cc2)=NO1)c1ccc(Cl)s1` (centres unmarked) [Example 184, 5-Chloro-thiophene-2-carboxylic acid [3-(2′-chloro-biphenyl-4-yl)-4,5-dihydro-isoxazol-5-ylmethyl]-amide] the figure was at least 500 nM; with `CCOc1cc(C2=NCCN2C)ccc1C1=NOC(CNC(=O)c2ccc(Cl)s2)C1` (centres unmarked) [Example 107, 5-Chloro-thiophene-2-carboxylic acid {3-[2-ethoxy-4-(1-methyl-4,5-dihydro-1H-imidazol-2-yl)-phenyl]-4,5-dihydro-isoxazol-5-ylmethyl}-amide], at most 100 nM; with `CCOc1cc(Nc2ccc(C3=NOC(CNC(=O)c4ccc(Cl)s4)C3)cc2)ccn1` (centres unmarked) [Example 401, 5-Chloro-N-((3-(4-(2-ethoxypyridin-4-ylamino)phenyl)-4,5-dihydroisoxazol-5-yl)methyl)thiophene-2-carboxamide], at most 100 nM.
`CN(Cc1cc(-c2ccc(C(=N)N3CCC(C(N)=O)CC3)cc2)no1)C(=O)c1ccc(Cl)s1` [Example 45, 1-{[4-(5-{[(5-Chloro-thiophene-2-carbonyl)-methyl-amino]-methyl}-isoxazol-3-yl)-phenyl]-imino-methyl}-piperidine-4-carboxylic acid amide] returned an IC50 of at least 500 nM.
With `CN(C)Cc1ccccc1-c1ccc(-c2cc(CNC(=O)c3ccc(Cl)s3)on2)cc1` [Example 209, 5-Chloro-thiophene-2-carboxylic acid [3-(2′-dimethylaminomethyl-biphenyl-4-yl)-isoxazol-5-ylmethyl]-amide] the figure was at most 100 nM; with `CN1CCN=C1c1ccc(-c2noc(CNC(=O)c3ccc(Cl)s3)n2)cc1` [Example 335, 5-Chloro-N-((3-(4-(1-methyl-4,5-dihydro-1H-imidazol-2-yl)phenyl)-1,2,4-oxadiazol-5-yl)methyl)thiophene-2-carboxamide], at most 100 nM; with `O=C(NCC1CC(c2ccc(-n3cccc(F)c3=O)cc2)=NO1)c1ccc(Cl)s1` (centres unmarked) [Example 279, 5-Chloro-N-((3-(4-(3-fluoro-2-oxopyridin-1(2H)-yl)phenyl)-4,5-dihydroisoxazol-5-yl)methyl)thiophene-2-carboxamide], at most 100 nM.
`Cc1ccc(=O)n(-c2ccc(-n3cc(CNC(=O)c4ccc(Cl)s4)nn3)cc2)c1` [Example 296, 5-Chloro-N-((1-(4-(5-methyl-2-oxopyridin-1(2H)-yl)phenyl)-1H-1,2,3-triazol-4-yl)methyl)thiophene-2-carboxamide]: the IC50 is at most 100 nM.
Then `N=C(c1ccc(-n2cnc(CNC(=O)c3ccc(Cl)s3)c2)cc1)N1CCCC1` [Example 367, 5-Chloro-N-((1-(4-(imino(pyrrolidin-1-yl)methyl)phenyl)-1H-imidazol-4-yl)methyl)thiophene-2-carboxamide], with at most 100 nM.
With `O=Cc1ccccc1-c1ccc(-c2cc(CNC(=O)c3ccc(Cl)s3)on2)cc1` [Example 208, 5-Chloro-thiophene-2-carboxylic acid [3-(2′-formyl-biphenyl-4-yl)-isoxazol-5-ylmethyl]-amide] the figure was at most 100 nM; with `O=C(O)c1ccc(C2=NOC(CNC(=O)c3ccc(Cl)s3)C2)cc1` (centres unmarked) [Example 158, 4-(5-{[(5-Chloro-thiophene-2-carbonyl)-amino]-methyl}-4,5-dihydro-isoxazol-3-yl)-benzoic acid], at least 500 nM; with `O=C(NCc1cc(-c2ccc(Nc3ccncc3)cc2)no1)c1ccc(Cl)s1` [Example 254, 5-Chloro-thiophene-2-carboxylic acid {3-[4-(pyridin-4-ylamino)-phenyl]-isoxazol-5-ylmethyl}-amide], at most 100 nM.
As for `CN1CCN=C1c1ccc(-c2cccc(CNC(=O)c3ccc(Cl)s3)c2)cc1` [Example 381, 5-Chloro-N-((3-(4-(1-methyl-4,5-dihydro-1H-imidazol-2-yl)phenyl)phenyl)methyl)thiophene-2-carboxamide], the IC50 was at most 100 nM.
Molecule `CC(C)N1CCC(C2=NOC(CNC(=O)c3ccc(Cl)s3)C2)CC1` (centres unmarked) [Example 171, 5-Chloro-thiophene-2-carboxylic acid [3-(1-isopropyl-piperidin-4-yl)-4,5-dihydro-isoxazol-5-ylmethyl]-amide] returned an IC50 of at least 500 nM.
In turn, `CNC(=N)c1ccc(-c2nc(CNC(=O)c3ccc(Cl)s3)co2)cc1` [Example 348, N-((2-(4-(N-Methylcarbamimidoyl)phenyl)oxazol-4-yl)methyl)-5-chlorothiophene-2-carboxamide] gave an IC50 of at least 500 nM.
With `CN(C)CCCN(C)c1ccc(C2=NOC(CNC(=O)c3ccc(Cl)s3)C2)cc1` (centres unmarked) [Example 239, 5-Chloro-thiophene-2-carboxylic acid (3-{4-[(3-dimethylamino-propyl)-methyl-amino]-phenyl}-4,5-dihydro-isoxazol-5-ylmethyl)-amide] the figure was at most 100 nM; with `CN1CCCN(c2ccc(-n3cc(CNC(=O)c4ccc(Cl)s4)nn3)cn2)CC1` [Example 383, 5-Chloro-N-((1-(6-(4-methyl-1,4-diazepan-1-yl)pyridin-3-yl)-1H-1,2,3-triazol-4-yl)methyl)thiophene-2-carboxamide], at most 100 nM.
With `CN(C)c1cc(C(=N)N2CCCC2)ccc1-c1cc(CNC(=O)c2ccc(Cl)s2)on1` [Example 96, 5-Chloro-thiophene-2-carboxylic acid {3-[2-dimethylamino-4-(imino-pyrrolidin-1-yl-methyl)-phenyl]-isoxazol-5-ylmethyl}-amide] the figure was at most 100 nM.
`CN1CCN=C1c1ccc(-c2nc(CNC(=O)c3ccc(Cl)s3)cs2)cc1` [Example 351, 5-Chloro-N-((2-(4-(1-methyl-4,5-dihydro-1H-imidazol-2-yl)phenyl)thiazol-4-yl)methyl)thiophene-2-carboxamide] returned an IC50 of 100 to 500 nM.
Then `CN1CCN=C1c1ccc(-c2cc(CNC(=O)c3ccc(Cl)s3)ccc2F)cc1` [Example 378, 5-Chloro-N-((3-(4-(1-methyl-4,5-dihydro-1H-imidazol-2-yl)phenyl)-4-fluorophenyl)methyl)thiophene-2-carboxamide], with 100 to 500 nM; and `CN1CCN(c2ccc(-n3cc(CNC(=O)c4ccc(Cl)s4)nn3)cn2)CC1` [Example 391, 5-Chloro-N-((1-(6-(4-methylpiperazin-1-yl)pyridin-3-yl)-1H-1,2,3-triazol-4-yl)methyl)thiophene-2-carboxamide], with 100 to 500 nM.
